Among the data in PMC10089784, “Inhibition of Gluconeogenesis by Boldine in the Perfused Liver: Therapeutical Implication for Glycemic Control” (International Journal of Hepatology, 2023) are inhibition values, retold here.

Common to all, as to assay type: cell-based
In assay [1] the target is T1, fructose 1,6-bisphosphatase (FBPase-1) (Rattus norvegicus, UniProt P19112).
T1 construct: gene Fbp1; rat liver cytosolic fraction
T1 sequence (P19112 2-363): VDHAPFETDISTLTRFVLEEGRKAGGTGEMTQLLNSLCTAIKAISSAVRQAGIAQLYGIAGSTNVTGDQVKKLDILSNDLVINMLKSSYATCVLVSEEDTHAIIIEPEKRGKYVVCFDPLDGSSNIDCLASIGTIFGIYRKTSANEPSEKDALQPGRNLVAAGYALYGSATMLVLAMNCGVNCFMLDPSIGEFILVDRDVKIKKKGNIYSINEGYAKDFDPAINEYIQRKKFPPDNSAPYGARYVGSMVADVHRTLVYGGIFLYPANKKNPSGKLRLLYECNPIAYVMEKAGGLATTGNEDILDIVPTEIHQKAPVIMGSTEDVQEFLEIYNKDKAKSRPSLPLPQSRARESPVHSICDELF
The experiment in a line: phosphate release from fructose […],6-bisphosphate in rat liver cytosolic fraction; […] (incomplete) inhibition at […].

Assay [2] concerns the target T2, phosphoenolpyruvate carboxykinase (PEPCK) (Rattus norvegicus, UniProt P07379).
T2 construct: gene Pck1; rat liver cytosolic fraction
Briefly: enzyme activity in rat liver cytosolic fraction, coupled to malate dehydrogenase (NADH oxidation, […] nm); […] inhibition at […].

The target in assay [3] is T3, glucose 6-phosphatase (G6Pase) (Rattus norvegicus, UniProt P43428).
T3 construct: gene G6pc1; isolated rat liver microsomes
T3 sequence (P43428 1-357): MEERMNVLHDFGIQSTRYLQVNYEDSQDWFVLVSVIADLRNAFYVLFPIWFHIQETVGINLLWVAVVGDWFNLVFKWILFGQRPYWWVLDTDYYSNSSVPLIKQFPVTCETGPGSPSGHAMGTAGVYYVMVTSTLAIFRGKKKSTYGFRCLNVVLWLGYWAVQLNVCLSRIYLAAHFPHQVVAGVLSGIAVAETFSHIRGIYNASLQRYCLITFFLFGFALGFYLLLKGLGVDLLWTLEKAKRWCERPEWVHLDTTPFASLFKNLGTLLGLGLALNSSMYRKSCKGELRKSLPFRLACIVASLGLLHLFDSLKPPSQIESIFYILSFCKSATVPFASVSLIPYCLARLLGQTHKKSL
The experiment in a line: phosphate release from glucose 6-phosphate in isolated rat liver microsomes; […] inhibition at […].

T2 sequence (P07379 whole entry): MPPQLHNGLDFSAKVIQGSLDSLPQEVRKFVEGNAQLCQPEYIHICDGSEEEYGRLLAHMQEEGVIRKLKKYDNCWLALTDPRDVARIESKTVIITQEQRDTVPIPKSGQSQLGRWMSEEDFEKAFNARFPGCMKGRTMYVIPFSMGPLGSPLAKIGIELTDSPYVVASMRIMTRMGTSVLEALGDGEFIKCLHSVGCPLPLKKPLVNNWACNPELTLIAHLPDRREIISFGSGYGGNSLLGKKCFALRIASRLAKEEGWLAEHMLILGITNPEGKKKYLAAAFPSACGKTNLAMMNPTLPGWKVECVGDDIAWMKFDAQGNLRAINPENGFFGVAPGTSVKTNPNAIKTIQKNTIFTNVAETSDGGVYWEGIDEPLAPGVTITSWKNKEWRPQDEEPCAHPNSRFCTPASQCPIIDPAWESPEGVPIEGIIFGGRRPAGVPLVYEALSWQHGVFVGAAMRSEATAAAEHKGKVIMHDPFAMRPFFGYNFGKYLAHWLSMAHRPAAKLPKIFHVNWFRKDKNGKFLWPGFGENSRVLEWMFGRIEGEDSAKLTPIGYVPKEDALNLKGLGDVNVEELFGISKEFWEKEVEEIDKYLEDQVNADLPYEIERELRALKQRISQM

On to `COc1cc2c(cc1O)C[C@H]1c3c(cc(O)c(OC)c3-2)CCN1C` [boldine, 1,10-dimethoxy-2,9-dihydroxy aporphine], for which the inhibition at 200 µM was 42% in assay [1], 49% in assay [2] and 35% in assay [3].
